Laboratory results: article PMC4459817, “Vasculotide reduces endothelial permeability and tumor cell extravasation in the absence of binding to or agonistic activation of Tie2” (EMBO Molecular Medicine, 2015)

Legend:
[1] = tested on: CMPTX-labeled tumor cells across HMVEC-DBl; assay: modified Boyden chamber, trans-endothelial tumor cell migration, HMVEC-DBl; assay type: cell-based, human; details: Fig1E
Method: ECs were first treated with Vasculotide (VT), PBS (vehicle/negative control), Ang1 (positive control), PEG-Cys (polyethylene glycol backbone), T7c (non-PEGylated CHHHRHSF peptides), or VT in the presence of 100-fold molar excess of T7c. The concentrations used, 10–20 ng/mL VT and 200–400 ng/mL Ang1, are estimated molar equivalents (0.71–1.43 nM). Thirty minutes later, ECs were stimulated with thrombin, 0.1% BSA (vehicle/negative control), or EDTA (positive control). Another 30mins later, the amount of FITC-dextran diffusion into the lower chambers (A, D) provides a measure of endothelial permeability. CMTPX-labeled tumor cells (TCs) were then dispensed into inserts, and the amount of TC fluorescence emitting from the underside of insert membranes after 20 h (B–C) or 28 h (E) reflects the efficiency of trans-endothelial TC migration. […] Three experiments (twice with HMVEC-LBl and once with HMVEC-DBl) were run with n = 3–5 inserts (independent biological replicates) per group and analyzed by two-sampled unpaired t-tests. […]
Endothelial cells (ECs) were grown on cell culture inserts with uncoated 8-μm-pore PET filter membranes to 100% confluency. […] After 30 min of thrombin stimulation or 4–6 h of TC-CM stimulation, FITC fluorescence (ex/em = 490/520 nm) was measured from a 50 μl sample of the lower chamber media. […]

[2] = tested on: LM2-4luc experimental metastasis; details: SU prior to IV inoculation of LM2-4luc; ref Ebos et al, 2009; cited from earlier work
Text: Here, we tested whether concurrent VT therapy can be used to reverse this pro-metastatic potential of SU in the same model. LM2-4^luc is a metastatically aggressive luciferase-tagged derivative of the MDA-MB-231 cell line that was derived through serial in vivo selection ...

[3] = target: T1, human Tie2-Fc (Fc-conjugated extracellular domain of Tie2) (human, UniProt Q02763 23-748); assay: SPR
T1 chain: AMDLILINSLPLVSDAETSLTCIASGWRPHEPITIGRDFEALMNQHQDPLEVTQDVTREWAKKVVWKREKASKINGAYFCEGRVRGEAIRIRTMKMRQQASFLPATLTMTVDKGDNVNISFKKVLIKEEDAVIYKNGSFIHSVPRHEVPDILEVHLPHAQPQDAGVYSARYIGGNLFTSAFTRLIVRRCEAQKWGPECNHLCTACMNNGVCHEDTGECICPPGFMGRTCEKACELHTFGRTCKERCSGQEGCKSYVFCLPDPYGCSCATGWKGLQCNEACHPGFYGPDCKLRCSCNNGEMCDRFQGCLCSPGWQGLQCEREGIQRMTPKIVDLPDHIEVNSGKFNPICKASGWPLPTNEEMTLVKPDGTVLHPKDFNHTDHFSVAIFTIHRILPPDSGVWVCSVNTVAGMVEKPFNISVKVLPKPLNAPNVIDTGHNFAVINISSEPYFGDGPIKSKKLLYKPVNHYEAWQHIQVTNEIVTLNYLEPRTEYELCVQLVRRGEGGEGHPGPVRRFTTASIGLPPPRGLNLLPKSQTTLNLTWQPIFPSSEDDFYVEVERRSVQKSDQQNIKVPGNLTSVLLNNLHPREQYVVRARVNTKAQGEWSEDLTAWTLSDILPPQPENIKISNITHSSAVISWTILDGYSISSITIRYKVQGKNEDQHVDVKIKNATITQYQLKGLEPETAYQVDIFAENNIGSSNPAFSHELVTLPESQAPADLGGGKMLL

In the case of “CHHHRHSF [Vasculotide, 4-armed maleimide-functionalized polyethylene glycol (PEG) backbone to link together four cysteine-capped T7 peptides, that is, CHHHRHSF]”, the “thrombin-stimulated migration of CMTPX-labeled TCs” value ([1]; 28 h) is reported as “trends of reducing thrombin-stimulated migration” and the “TC migration effect of VT in presence of 100-fold molar excess of T7c” value [1] is reported as “dampened the effects of VT”.

For CCN(CC)CCNC(=O)c1c(C)[nH]c(/C=C2\C(=O)Nc3ccc(F)cc32)c1C [sunitinib, reference compound], the “experimental metastasis, especially in the lungs” value [2] is listed as “promotion of experimental metastasis, especially in the lungs”.

B1: recombinant human Ang1 (rhAng1) (ligand, UniProt Q15389 16-498, looked up)
chain: HIGCSNQRRSPENSGRRYNRIQHGQCAYTFILPEHDGNCRESTTDQYNTNALQRDAPHVEPDFSSQKLQHLEHVMENYTQWLQKLENYIVENMKSEMAQIQQNAVQNHTATMLEIGTSLLSQTAEQTRKLTDVETQVLNQTSRLEIQLLENSLSTYKLEKQLLQQTNEILKIHEKNSLLEHKILEMEGKHKEELDTLKEEKENLQGLVTRQTYIIQELEKQLNRATTNNSVLQKQQLELMDTVHNLVNLCTKEGVLLKGGKREEEKPFRDCADVYQAGFNKSGIYTIYINNMPEPKKVFCNMDVNGGGWTVIQHREDGSLDFQRGWKEYKMGFGNPSGEYWLGNEFIFAITSQRQYMLRIELMDWEGNRAYSQYDRFHIGNEKQNYRLYLKGHTGTAGKQSSLILHGADFSTKDADNDNCMCKCALMLTGGWWFDACGPSNLNGMFYTAGQNHGKLNGIKWHYFKGPSYSLRSTTMMIRPLDF
notes: angiopoietin-1, human, recombinant; also called angiopoietin-1; source: bought: R&D Systems (named for the Boyden chamber experiments)
In the case of B1, the koff [3] is reported as 0.00029 s⁻¹.
